In data set [1] the test system is NPM-ALK lymphoma cells. Put plainly: in vitro survival of lymphoma cells with doxorubicin (TMRM staining, flow cytometry). Type of data set: cell-based, murine. The note with it: 24 or 48 hours, increasing concentrations. As for the experimental part: FIG. 6. NPM-ALK lymphoma cells are sensitive to doxorubicin. NPM-ALK lymphoma cells were incubated in vitro for 24 or 48 hours with increasing concentrations of doxorubicin. Percentages of alive cells were calculated by TMRM staining and flow cytometry analyses.
To mimic more strictly these clinical settings, the efficiency of the vaccination strategy disclosed herein in association with chemotherapy, which remains the standard therapeutic strategy for human Anaplastic Large Cell Lymphomas (ALCL), was tested.
(In general: In flow cytometry, cells or beads pass a laser one at a time.)

Data set [2] relates to NPM-ALK lymphoma cells. Kind of data set: i.v. lymphoma treated with single dose doxorubicin followed by DNA vaccination. It counts as in vivo, BALB/c mice. An excerpt:
FIG. 2. Efficacy of ALK vaccination in preventing disseminated lymphoma growth and in lymphoma therapy (a,b) Disseminated growth of NPM-ALK lymphoma cells injected in the tail vein in mock or ALK plasmid vaccinated BALB/c mice. (a) All mock vaccinated mice challenged i.v. 7 days after the second vaccination with 1×10^6 NPM-ALK lymphoma died of lymphoma outgrowth within 50 days after challenge while 70% of ALK vaccinated mice remained alive and well for all the observation period of 180 days. […] (c) Increasing amounts of NPM-ALK lymphoma cells were injected s.c. in BALB/c mice on day 0. Mice were then vaccinated as described above on days 1 and 8. Tumor growth was followed over time. Data are from one of two independent experiments with at least 7 mice for each group. * P<0.01. (d) BALB/c mice were i.v. injected with 1×10^6 NPM-ALK lymphoma cells on day 0. On day 7 mice received i.v. 10 mg/kg of doxorubicin (dashed arrow) followed on days 14, 21 and 28 by DNA vaccination with empty (mock) or ALK-expressing plasmids (full arrows). Mice were then followed up to 90 days. […] Tumor size was measured over time. […]
A single dose chemotherapy protocols was employed using doxorubicin (10 mg/kg) 7 day prior the i.v. injection of a challenging dose (1×10^6) of NPM-ALK positive lymphoma cells. […] Tumor growth and overall survival were determined, overtime.

The test system of data set [3] is NPM-ALK expressing lymphoma cells. Kind of data set: s.c. challenge with NPM-ALK lymphoma cells after DNA vaccination. Type of data set: in vivo, BALB/c mice. The note with it: vaccinated twice at a week interval; s.c. challenge one week after second vaccination. As for the experimental part: FIG. 1. ALK vaccination prevents the growth of NPM-ALK positive lymphoma cells. (a,b) BALB/c mice were vaccinated on day 0 and 7 in both the tibial muscles with 40 μg of pDEST plasmid or with pDEST-ALK (ALK) plasmid coding for the full ALK tyrosine kinase intracytoplasmic domain (a) or with pDEST-ALKt (ALKt) coding for a truncated portion of ALK lacking the part of the tyrosine kinase domain (b). An additional group of mice was vaccinated with the pDEST-ALK or pDEST-ALKt plasmids combined with the same amount of a pcDNA3 plasmid coding for GM-CSF. […]
Mice were challenged subcutaneously in the right flank with 0.2 ml PBS of a single suspension containing 10^5 to 10^6 ALK-OVA and VAC lymphoid cells, as indicated in each experiment. The cages were coded, and the incidence and the growth of tumors were evaluated at the indicated times in a blind fashion. Neoplastic masses were measured with calipers in the two perpendicular diameters.
For DNA electroporation, 50 μg of pDEST empty vector or pDEST-ALK (ALK) vector in 20 μl of 0.9% NaCl with 6 mg/ml polyglutamate were injected on days 0 and 7 into both the tibial muscle of anesthetized BALB/c mice. […] Protection was evaluated as the percentage of lymphoma-free mice 21 days after challenge.

Entries after “also recorded” stand apart in the source; their conditions may differ.

On to `COc1cccc2c1C(=O)c1c(O)c3c(c(O)c1C2=O)C[C@@](O)(C(=O)CO)C[C@@H]3O[C@H]1C[C@H](N)[C@H](O)[C@H](C)O1` [doxorubicin], for which, in the data set with NPM-ALK lymphoma cells [1], the “sensitivity of lymphoma cells (apoptosis / alive cells)” value is recorded as “sensitive; also recorded: rapid apoptosis with low doses”. Also, the cure rate with NPM-ALK lymphoma cells [2] (chemotherapy alone (single dose doxorubicin one week after 1×10^6 cells i.v.)) was determined as 60%. For the same molecule, in the data set on NPM-ALK lymphoma cells [2] (chemotherapy alone versus untreated mice), the survival result is reported as “prolonged their survival”. Turning to “pDEST-ALK^K210R: pDEST plasmid encoding cytoplasmic portion of kinase dead mutant K210R of ALK (SEQ ID No.:3)”, the “protection from localized lymphoma growth” value in data set [3] is on record as “total protection”.

B1: pDEST-ALKt: pDEST plasmid with truncated form of ALK lacking part of the tyrosine kinase domain (SEQ ID No.: 2) (nucleic acid)
DNA: TGCTTTGCTGGCAAGACCTCCTCCATCAGTGACCTGAAGGAGGTGCCGCGGAAAAACATCACCCTCATTCGGGGTCTGGGCCATGGCGCCTTTGGGGAGGTGTATGAAGGCCAGGTGTCCGGAATGCCCAACGACCCAAGCCCCCTGCAAGTGGCTGTGAAGACGCTGCCTGAAGTGTGCTCTGAACAGGACGAACTGGATTTCCTCATGGAAGCCCTGATCATCAGCAAATTCAACCACCAGAACATTGTTCGCTGCATTGGGGTGAGCCTGCAATCCCTGCCCCGGTTCATCCTGCTGGAGCTCATGGCGGGGGGAGACCTCAAGTCCTTCCTCCGAGAGACCCGCCCTCGCCCGAGCCAGCCCTCCTCCCTGGCCATGCTGGACCTTCTGCACGTGGCTCGGGACATTGCCTGTGGCTGTCAGTATTTGGAGGAAAACCACTTCATCCACCGAGACATTGCTGCCAGAAACTGCCTCTTGACCTGTCCAGGCCCTGGAAGAGTGGCCAAGATTGGAGACTTCGGGATGGCCCGAGACATCTACAGGGCGAGCTACTATAGAAAGGGAGGCTGTGCCATGCTGCCAGTTAAGTGGATGCCCCCAGAGGCCTTCATGGAAGGAATATTCACTTCTAAAACAGACACATGGTCCTTTGGAGTGCTGCTATGGGAAATCTTTTCTCTTGGATATATGCCATACCCCAGCAAAAGCAACCAGGAAGTTCTGGAGTTTGTCACCAGTGGAGGCCGGATGGACCCACCCAAGAACTGCCCTGGGCCTGTATACCGGATAATGACTCAGTGCTGGCAACATCAGCCTGAAGACAGGCCCAACTTTGCCATCATTTTGGAGAGGATTGAATACTGCACCCAGGACCCGGATGTAATCAACACCGCTTTG
modifications: portion of cytoplasmic domain of ALK - human
Regarding B1, in data set [3], the “protection from localized lymphoma growth” value was “total protection”.

The values are drawn from patent publication US9650614B2, “Anaplastic lymphoma kinase (ALK) as oncoantigen for lymphoma vaccination” (priority 2007, dated 2017).
